In paper PMC4047118, “BM-1197: A Novel and Specific Bcl-2/Bcl-xL Inhibitor Inducing Complete and Long-Lasting Tumor Regression In Vivo” (PLoS ONE, 2014):
Like-named read-outs stand apart in the source and are kept apart here.

Experiments:
[1] = tested on: MCL1-wild-type (WT) MEF cells; assay: cell growth inhibition, WST assay, wild-type MEF; assay type: cell-based; details: Mus musculus, 72 h, 3 days
Description: (§1) All the SCLC cell lines were purchased from American Type Culture Collection (Manassas, VA) and cultured as recommended. All these cell lines were passaged fewer than 6 months after purchase. MCL1 knockout (MCL1^−/−) MEF cells were kindly provided by Dr. David Huang (The Walter and Eliza Hall Institute of Medical Research, Melbourne, Australia). Cell growth inhibition was evaluated by means of a WST-8 assay (Dojindo, Rockville, MD) as described previously. Mitochondrial membrane potential was determined by JC-1 staining using a JC-1 Mitochondrial Membrane Potential Assay kit (Cayman). Apoptosis analysis was performed using an Annexin V/propidium iodide (PI) apoptosis detection kit (Roche Applied Sciences, Indianapolis, IN).
(§2) (B) MCL1^−/− cells were treated with 100 nM of BM-1197 for 16 h and stained with Annexin V/PI for flow cytometry. […] They are given in the order upper left, upper right, lower left, lower right.

DMS273 = assay: SCLC cell growth inhibition (WST-8), DMS273; assay type: cell-based; details: Homo sapiens, DMS-273; 96-h incubation, means ± SD (n = 3–6)
Description: as §1

H889 = assay: SCLC cell growth inhibition (WST-8), H889; assay type: cell-based; details: Homo sapiens, NCI-H889; 96-h incubation, means ± SD (n = 3–6)
Description: as §1

Bcl-2 = biological target: T1, Bcl-2 (Mus musculus, UniProt P10417); assay: cellular thermal shift assay (CETSA), Bcl-2; assay type: cell-based; details: 1 µM, 1 h, MEF MCL1−/− cells
T1 construct: endogenous in cells; host or cells: MEF MCL1-/- cells
T1 sequence (P10417 whole entry): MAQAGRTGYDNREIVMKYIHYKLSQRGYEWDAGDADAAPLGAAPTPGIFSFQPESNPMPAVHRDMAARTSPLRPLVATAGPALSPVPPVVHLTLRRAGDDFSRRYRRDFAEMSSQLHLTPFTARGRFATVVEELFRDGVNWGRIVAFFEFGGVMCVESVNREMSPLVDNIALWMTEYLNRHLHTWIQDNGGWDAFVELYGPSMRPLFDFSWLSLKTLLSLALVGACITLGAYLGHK
Description: (§3) Drug-target engagement was assessed using CETSA as described by Molina et al.. Briefly, cells were treated with drugs for 1 h, then harvested, washed with PBS, and resuspended in PBS. The resuspended cells were freeze-thawed 4 times. The soluble fraction (lysate) was separated from cell debris by centrifugation at 20000×g for 20 minutes at 4°C and then analyzed by Western blots.
(§4) Drug-treated cells were heated at gradient temperature from 42°C to 62°C for 3 min then freeze-thawed 4 times. The soluble fractions of the lysed cells were analyzed by immunoblotting. (B) MEF MCL1^− ^/− cells were treated with drugs at the indicated doses for 1 h before collected for CETSA.

H82 = assay: SCLC cell growth inhibition (WST-8), H82; assay type: cell-based; details: Homo sapiens, NCI-H82; 96-h incubation, means ± SD (n = 3–6)
Description: as §1

H1417 = assay: SCLC cell growth inhibition (WST-8), H1417; assay type: cell-based; details: Homo sapiens, NCI-H1417; 96-h incubation, means ± SD (n = 3–6)
Description: as §1

SW1271 = assay: SCLC cell growth inhibition (WST-8), SW1271; assay type: cell-based; details: Homo sapiens, 96-h incubation, means ± SD (n = 3–6)
Description: as §1

H196 = assay: SCLC cell growth inhibition (WST-8), H196; assay type: cell-based; details: Homo sapiens, NCI-H196; 96-h incubation, means ± SD (n = 3–6)
Description: as §1

[2] = tested on: panel of 12 SCLC cell lines; assay: growth inhibition in a panel of 12 SCLC cell lines (summary); assay type: cell-based, human; details: for IC50: Homo sapiens
Description: as §1

Mcl-1 = Mcl-1 (Homo sapiens, UniProt Q07820); assay: fluorescence-polarization (FP) binding assay, Mcl-1
Chain of Mcl-1 (Q07820 whole entry): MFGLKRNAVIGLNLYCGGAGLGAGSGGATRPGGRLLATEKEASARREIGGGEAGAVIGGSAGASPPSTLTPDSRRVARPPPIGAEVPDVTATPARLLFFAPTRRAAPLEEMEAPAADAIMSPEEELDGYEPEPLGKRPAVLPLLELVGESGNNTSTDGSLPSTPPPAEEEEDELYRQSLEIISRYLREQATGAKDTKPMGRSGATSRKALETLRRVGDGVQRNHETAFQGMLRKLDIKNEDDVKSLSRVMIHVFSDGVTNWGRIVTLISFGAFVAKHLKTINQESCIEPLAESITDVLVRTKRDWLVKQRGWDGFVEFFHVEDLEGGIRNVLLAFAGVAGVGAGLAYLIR
Excerpt: BM-1197 ( Fig 1 ), was synthesized in a similar manner as described for BM-1074 [16]. We evaluated the binding affinities of BM-1197 to Bcl-2, Bcl-xL and Mcl-1 proteins using our optimized fluorescence-polarization (FP) binding assays. […] Of note, the binding affinities of these compounds to Bcl-2 and Bcl-xL proteins are close to the lower limits of the assay and their precise Ki values could not be determined accurately using our competitive, FP binding assays.

[3] = tested on: MCL1-deficient (MCL1−/−) MEF cells; assay: cell growth inhibition, WST assay, MCL1-deficient MEF; assay type: cell-based, mouse
Description: as §1, §2

H211 = assay: SCLC cell growth inhibition (WST-8), H211; assay type: cell-based; details: Homo sapiens, NCI-H211; 96-h incubation, means ± SD (n = 3–6)
Description: as §1

Bcl-xL [4] = biological target: Bcl-xL (Homo sapiens, UniProt Q07817); assay: fluorescence-polarization (FP) binding assay, Bcl-xL; details: means ± SD (n≥3)
Chain of Bcl-xL (Homo sapiens, UniProt Q07817) (Q07817 whole entry): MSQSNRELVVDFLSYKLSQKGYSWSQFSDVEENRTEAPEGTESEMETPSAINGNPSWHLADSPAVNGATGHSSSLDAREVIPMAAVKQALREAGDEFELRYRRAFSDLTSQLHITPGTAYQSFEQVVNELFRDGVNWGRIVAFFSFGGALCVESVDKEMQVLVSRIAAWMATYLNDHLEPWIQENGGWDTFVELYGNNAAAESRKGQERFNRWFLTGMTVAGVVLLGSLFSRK
Excerpt: BM-1197 ( Fig 1 ), was synthesized in a similar manner as described for BM-1074 [16]. We evaluated the binding affinities of BM-1197 to Bcl-2, Bcl-xL and Mcl-1 proteins using our optimized fluorescence-polarization (FP) binding assays.
Data are expressed as means ± SD (n≥3).

platelets = assay: platelet count / on-target platelet toxicity in mice; assay type: in vivo
Description: BM-1197 was administered by IV bolus injected into the tail vein of the mice. Mice were euthanized at different time points with CO2, then ∼0.2 ml of blood was drawn by cardiac puncture using an EDTA treated syringe, transferred to an EDTA treated tube and sent immediately for a Complete Blood Count. The samples were read at the University of Michigan Animal Diagnostic Laboratory on a HEMAVET 950FS Hematology Analyzer.
Figure 11 BM-1197 decreases platelet count in mice. BM-1197 was administered by IV bolus injected into the tail vein. At the indicated time points the mice were euthanized and blood was drawn for complete blood count. Data are mean ± SEM (n = 3).

H187 = assay: SCLC cell growth inhibition (WST-8), H187; assay type: cell-based; details: Homo sapiens, NCI-H187; 96-h incubation, means ± SD (n = 3–6)
Description: as §1

H1963 = assay: SCLC cell growth inhibition (WST-8), H1963; assay type: cell-based; details: Homo sapiens, NCI-H1963; 96-h incubation, means ± SD (n = 3–6)
Description: as §1

Bcl-xL [5] = biological target: T2, Bcl-xL (Mus musculus, UniProt Q64373); assay: cellular thermal shift assay (CETSA), Bcl-xL; assay type: cell-based; details: MEF MCL1−/− cells
T2 construct: endogenous in cells; host or cells: MEF MCL1-/- cells
T2 sequence (Q64373 whole entry): as the sequence (Q07817 whole entry) above, with G40E, S43A, M45R, A168S, E193D counted along it
Description: as §3, §4

IC50 (H889): 82 ± 20 nM
thermal stability of Bcl-2 protein (Bcl-2): enhanced
IC50 (H1417): 3 ± 1 nM
IC50 (SW1271): 306 ± 116 nM
IC50 (H196): > 2000 nM
binding to Mcl-1 (Mcl-1; at 2 µM): fails to bind
selectivity over Mcl-1 (Mcl-1; versus Bcl-2 and Bcl-xL): > 1,000 fold
IC50 (H211): 6 ± 5 nM
IC50 (Bcl-xL [4]): 5.2 ± 0.6 nM
Ki (Bcl-xL [4]): < 1 nM
IC50 (H187): 31 ± 4 nM
IC50 (H1963): 5 ± 2 nM
thermal stability of Bcl-xL protein (Bcl-xL [5]; 1 µM, 1 h): enhanced
lowest concentration that efficiently stabilized BCL-xL protein (Bcl-xL [5]; 1 h treatment): 16 nM
Compound: Cc1c(S(C)(=O)=O)c(-c2cc(F)cc(N3CCN(c4ccc(NS(=O)(=O)c5ccc(N[C@H](CCN6CCC(O)CC6)CSc6ccccc6)c(S(=O)(=O)C(F)(F)F)c5)cc4)CC3)c2)c(-c2ccc(Cl)cc2)n1C(C)C [BM-1197]
IC50 [1]: > 2000 nM
IC50 (DMS273): > 2000 nM
IC50 (H82): 698 ± 354 nM
fold more potent than ABT-263 ([2]; 4 cell lines most sensitive to BM-1197): 5-26 fold
IC50 ([2]; 2 of 12 SCLC cell lines, read-out: IC50 values in the 2 cell lines with weak activity): > 2000 nM
IC50 ([2]; 3 of 12 SCLC cell lines, read-out: IC50 values in the 3 cell lines with moderate activity): ~600 nM
IC50 ([2]; 7 of 12 SCLC cell lines, read-out: IC50 values in the 7 cell lines with potent activity): 3 to 82 nM
times more potent than ABT-263 in inhibition of cell growth ([3]; MCL1−/− cells): ~8 times
IC50 ([3]; Mus musculus, MEF, 72 h, 3 days, WST assay): 5 ± 3 nM
lowest platelet count (platelets; 15 mg/kg IV bolus, at 24 h): 96000 µL⁻¹
bleeding (platelets; repeated daily or weekly intravenous doses in efficacy experiments): did not observe any bleeding
